Reference: patent publication US10517889B2, “Modulators of SMAD7 expression” (Ionis Pharmaceuticals, Inc., priority 2017, dated 2019)
Strand notation (5' to 3'): a small letter for the sugar, then the base; units joined by * are phosphorothioate-linked, units joined directly phosphodiester-linked; [ ] holds rarer units or linkages, { } end groups; capitals alone tell only the bases. e = 2'-O-(2-methoxyethyl) (MOE); [5mC] = 5-methylcytosine; d = 2'-deoxy (DNA)

Each substance was assayed on human SMAD7 mRNA (assay: Antisense inhibition of human SMAD7 mRNA expression in Hep3B cells by 5-10-5 MOE gapmers, single concentration, electroporation, RT-PCR (Example 1, Study 1 and 2)). Details: Study 2, electroporation with 15,000 nM antisense oligonucleotide, 5-10-5 MOE gapmers targeting SEQ ID NO: 1 and 2.
Assay type: cell-based
Summary of the method: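 Readout is percent SMAD7 mRNA inhibition versus untreated cells, measured by qRT-PCR (RTS5062) and corrected for total RNA by RIBOGREEN. Oligonucleotide, 5,000 nM or 15,000 nM, was delivered by electroporation into Hep3B cells at 20,000 per well. RNA was collected about 24 h later.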

Substance | % Inhibition [%]
771903 (antisense eT*eG*e[5mC]*e[5mC]*eA*dA*d[5mC]*d[5mC]*d[5mC]*d[5mC]*dA*dG*dA*dG*dG*eT*eG*eA*eG*e[5mC]) [compound 771903] | 20
771908 (antisense e[5mC]*eA*eA*eA*e[5mC]*dA*dT*d[5mC]*dA*d[5mC]*d[5mC]*dA*d[5mC]*dG*d[5mC]*e[5mC]*eT*e[5mC]*eG*e[5mC]) [compound 771908] | 26
771910 (antisense eA*eG*eG*e[5mC]*eA*d[5mC]*dG*dG*d[5mC]*d[5mC]*dG*d[5mC]*d[5mC]*dT*d[5mC]*e[5mC]*eT*eG*e[5mC]*eA) [compound 771910] | 4
771911 (antisense eA*eT*eG*eG*eT*d[5mC]*d[5mC]*dA*dG*d[5mC]*dA*dG*dA*dG*d[5mC]*eA*eG*eA*eA*eG) [compound 771911] | 20
771916 (antisense e[5mC]*e[5mC]*eT*eT*e[5mC]*dT*dT*dA*dA*dA*dT*dT*dT*dT*dT*eA*eA*eT*eT*eT) [compound 771916] | 0
771918 (antisense eA*eA*eG*eG*e[5mC]*d[5mC]*dA*d[5mC]*dA*dT*dT*dT*dT*dA*dG*eG*eT*eT*eA*eA) [compound 771918] | 12
771919 (antisense e[5mC]*eA*eA*eT*eG*dG*d[5mC]*dA*d[5mC]*dA*dG*dG*dG*dT*dG*eA*e[5mC]*e[5mC]*eA*eG) [compound 771919] | 29
771924 (antisense eT*e[5mC]*eG*e[5mC]*eT*dG*dA*dT*dA*dG*dT*dT*dA*dA*d[5mC]*e[5mC]*eT*e[5mC]*eT*eG) [compound 771924] | 9
771926 (antisense eA*e[5mC]*eA*eA*eA*dG*dG*dT*d[5mC]*dT*dG*dT*dG*dT*dG*eG*eA*e[5mC]*eG*e[5mC]) [compound 771926] | 13
771927 (antisense eG*e[5mC]*e[5mC]*e[5mC]*eA*d[5mC]*dA*dG*d[5mC]*d[5mC]*d[5mC]*dA*d[5mC]*dA*d[5mC]*eG*eA*eG*eT*e[5mC]) [compound 771927] | 0
771932 (antisense e[5mC]*eG*eA*eG*eG*dT*dG*d[5mC]*d[5mC]*d[5mC]*d[5mC]*d[5mC]*dA*dT*dG*e[5mC]*e[5mC]*eA*eG*eG) [compound 771932] | 13
771934 (antisense e[5mC]*eT*eG*eG*eA*dA*dA*dG*dG*dA*dA*dG*dA*d[5mC]*dT*e[5mC]*eG*eA*eG*eG) [compound 771934] | 15
771935 (antisense eG*eG*eA*eA*eG*dG*dA*d[5mC]*dA*d[5mC]*dA*dT*dT*dG*dG*e[5mC]*eA*eT*e[5mC]*eA) [compound 771935] | 23
771940 (antisense eT*e[5mC]*e[5mC]*eT*eG*d[5mC]*dT*dG*d[5mC]*d[5mC]*d[5mC]*d[5mC]*dA*dG*d[5mC]*eA*eG*eG*e[5mC]*eT) [compound 771940] | 0
771942 (antisense eG*eT*e[5mC]*eG*eG*dT*d[5mC]*dA*dG*dG*dG*d[5mC]*d[5mC]*dT*dT*eG*e[5mC]*e[5mC]*e[5mC]*eT) [compound 771942] | 11
771943 (antisense eG*eT*eA*eT*eT*dT*dG*dT*dT*dA*dA*d[5mC]*dA*dA*dA*eA*eA*eT*eG*eG) [compound 771943] | 0
771948 (antisense e[5mC]*eA*e[5mC]*e[5mC]*e[5mC]*dA*dG*d[5mC]*dT*d[5mC]*dT*d[5mC]*dA*dA*dA*eT*e[5mC]*eA*eG*eT) [compound 771948] | 0
771950 (antisense eA*eT*eG*e[5mC]*eA*dA*dA*dG*dG*dG*dA*d[5mC]*d[5mC]*d[5mC]*dT*eT*eA*eA*eT*eA) [compound 771950] | 0
771951 (antisense e[5mC]*eT*eG*e[5mC]*eA*dG*dA*dG*d[5mC]*dA*d[5mC]*dA*dG*dA*dT*eG*e[5mC]*eA*eA*eA) [compound 771951] | 9

Same assay, conditions: electroporation with 15,000 nM antisense oligonucleotide (Study 2), 5-10-5 MOE gapmers targeting SEQ ID NO: 1 and 2

Substance | % Inhibition of SMAD7 mRNA [%]
771904 (antisense e[5mC]*e[5mC]*e[5mC]*eA*eA*d[5mC]*d[5mC]*d[5mC]*dA*dT*d[5mC]*dT*d[5mC]*d[5mC]*dA*e[5mC]*e[5mC]*eA*e[5mC]*e[5mC]) [compound 771904] | 0
771912 (antisense eA*eT*eA*eT*eT*d[5mC]*d[5mC]*dT*d[5mC]*dT*dG*d[5mC]*d[5mC]*dA*dA*eA*eG*eT*e[5mC]*e[5mC]) [compound 771912] | 44
771920 (antisense eT*eT*eA*eT*eT*dT*dA*dA*dT*dT*dA*d[5mC]*d[5mC]*d[5mC]*dT*eG*e[5mC]*eT*e[5mC]*eA) [compound 771920] | 33
771928 (antisense e[5mC]*e[5mC]*e[5mC]*e[5mC]*eA*dT*dT*dG*d[5mC]*d[5mC]*dA*d[5mC]*dT*dA*d[5mC]*eA*eG*eA*eG*eA) [compound 771928] | 27
771936 (antisense eT*eG*eT*eT*eT*d[5mC]*dT*dG*dT*dG*dT*dG*d[5mC]*dA*d[5mC]*eA*eT*eA*e[5mC]*eG) [compound 771936] | 32
771952 (antisense eT*e[5mC]*eT*eT*e[5mC]*dT*d[5mC]*dT*dG*d[5mC]*dA*dG*dA*dG*d[5mC]*eA*e[5mC]*eA*eG*eA) [compound 771952] | 26

Same assay, conditions: electroporation, 15,000 nM antisense oligonucleotide (Study 2), 5-10-5 MOE gapmers targeting SEQ ID NO: 1 and 2

Substance | % inhibition of SMAD7 mRNA expression [%]
771904 (antisense e[5mC]*e[5mC]*e[5mC]*eA*eA*d[5mC]*d[5mC]*d[5mC]*dA*dT*d[5mC]*dT*d[5mC]*d[5mC]*dA*e[5mC]*e[5mC]*eA*e[5mC]*e[5mC]) [compound 771904] | 0
771905 (antisense eT*eA*eG*eG*e[5mC]*dG*dA*dA*dT*d[5mC]*d[5mC]*d[5mC]*dT*d[5mC]*d[5mC]*e[5mC]*e[5mC]*e[5mC]*eA*eA) [compound 771905] | 0
771906 (antisense eA*e[5mC]*e[5mC]*e[5mC]*eT*dT*dG*d[5mC]*dT*dG*dG*dT*d[5mC]*dT*d[5mC]*eT*eT*eG*eT*eT) [compound 771906] | 0
771912 (antisense eA*eT*eA*eT*eT*d[5mC]*d[5mC]*dT*d[5mC]*dT*dG*d[5mC]*d[5mC]*dA*dA*eA*eG*eT*e[5mC]*e[5mC]) [compound 771912] | 19
771913 (antisense eA*eA*eA*eA*eA*dA*dG*d[5mC]*d[5mC]*dA*dG*dT*dA*dA*dA*eG*eA*e[5mC]*eA*eT) [compound 771913] | 11
771914 (antisense eA*eT*eT*eT*eA*dG*dG*dA*dA*d[5mC]*dA*dA*dG*dG*dG*e[5mC]*eA*eA*eG*e[5mC]) [compound 771914] | 34
771920 (antisense eT*eT*eA*eT*eT*dT*dA*dA*dT*dT*dA*d[5mC]*d[5mC]*d[5mC]*dT*eG*e[5mC]*eT*e[5mC]*eA) [compound 771920] | 13
771921 (antisense eT*e[5mC]*e[5mC]*eT*e[5mC]*d[5mC]*d[5mC]*dT*dT*dT*dA*dA*dA*dG*dG*eG*eA*eA*eG*eG) [compound 771921] | 14
771922 (antisense eA*eA*eA*eT*eT*d[5mC]*d[5mC]*dT*dT*dT*dA*dA*dG*dG*dT*eG*eT*eT*eG*e[5mC]) [compound 771922] | 29
771928 (antisense e[5mC]*e[5mC]*e[5mC]*e[5mC]*eA*dT*dT*dG*d[5mC]*d[5mC]*dA*d[5mC]*dT*dA*d[5mC]*eA*eG*eA*eG*eA) [compound 771928] | 0
771929 (antisense e[5mC]*eT*eT*eT*e[5mC]*d[5mC]*dA*dG*d[5mC]*dA*dA*dA*dA*d[5mC]*d[5mC]*eA*eT*eT*e[5mC]*eG) [compound 771929] | 0
771930 (antisense e[5mC]*e[5mC]*eA*eG*e[5mC]*d[5mC]*d[5mC]*dA*dG*dA*dA*dA*dA*dA*d[5mC]*eT*eG*e[5mC]*eA*eA) [compound 771930] | 26
771936 (antisense eT*eG*eT*eT*eT*d[5mC]*dT*dG*dT*dG*dT*dG*d[5mC]*dA*d[5mC]*eA*eT*eA*e[5mC]*eG) [compound 771936] | 36
771938 (antisense e[5mC]*e[5mC]*eT*eT*e[5mC]*d[5mC]*d[5mC]*dA*dA*dA*dT*dG*d[5mC]*d[5mC]*dT*eG*e[5mC]*e[5mC]*e[5mC]*e[5mC]) [compound 771938] | 29
771945 (antisense eT*eT*eA*eT*eG*dT*dG*dT*d[5mC]*dT*d[5mC]*dA*dA*dA*dT*eA*eG*eA*eT*eG) [compound 771945] | 0
771946 (antisense eG*eG*eG*e[5mC]*eT*dA*d[5mC]*d[5mC]*dT*dT*dA*dA*d[5mC]*dA*dA*eA*eG*e[5mC]*eT*eT) [compound 771946] | 47
771952 (antisense eT*e[5mC]*eT*eT*e[5mC]*dT*d[5mC]*dT*dG*d[5mC]*dA*dG*dA*dG*d[5mC]*eA*e[5mC]*eA*eG*eA) [compound 771952] | 0
771953 (antisense eT*e[5mC]*eA*e[5mC]*e[5mC]*dA*dG*d[5mC]*dT*d[5mC]*dA*dT*d[5mC]*dT*d[5mC]*eT*e[5mC]*eA*eG*eG) [compound 771953] | 42
771954 (antisense e[5mC]*eT*eA*eG*eA*dA*dT*dG*dA*dA*dG*dA*d[5mC]*dA*d[5mC]*e[5mC]*e[5mC]*eG*e[5mC]*e[5mC]) [compound 771954] | 0

Same assay, conditions: electroporation, 15,000 nM, approximately 24 hours, relative to untreated control cells, gapmers targeting SEQ ID NO: 1 and 2

Substance | % inhibition of SMAD7 mRNA expression [%]
771909 (antisense e[5mC]*eA*eG*eG*e[5mC]*dT*d[5mC]*d[5mC]*d[5mC]*dT*dG*dT*dG*d[5mC]*d[5mC]*eA*eA*eT*e[5mC]*eA) [compound 771909] | 52
771917 (antisense e[5mC]*e[5mC]*eA*eG*eA*d[5mC]*d[5mC]*d[5mC]*d[5mC]*dT*dT*d[5mC]*dT*dT*dA*eA*eA*eT*eT*eT) [compound 771917] | 22
771925 (antisense eG*eG*e[5mC]*e[5mC]*eT*d[5mC]*dT*d[5mC]*dG*d[5mC]*dT*dG*dA*dT*dA*eG*eT*eT*eA*eA) [compound 771925] | 10
771933 (antisense eA*eT*e[5mC]*eG*eA*dG*dG*dT*dG*d[5mC]*d[5mC]*d[5mC]*d[5mC]*d[5mC]*dA*eT*eG*e[5mC]*e[5mC]*eA) [compound 771933] | 31
771941 (antisense eT*e[5mC]*eA*eA*eT*dG*dA*dT*dG*dA*dT*dG*dG*dG*dT*eT*eG*e[5mC]*eA*e[5mC]) [compound 771941] | 40
771949 (antisense eA*eG*eA*eT*e[5mC]*dT*dT*dT*d[5mC]*dA*dA*d[5mC]*dT*dG*dG*eA*eT*eG*eG*eA) [compound 771949] | 26
